Measured values: patent publication US7928102B2, “Irradiated compositions and treatment of cancers with radiation in combination with taurolidine and/or taurultam” (Ed. Geistlich Soehne AG fuer Chemische Industrie, priority 2006, dated 2011)
Like-named read-outs stand apart in the source and are kept apart here. One block for each compound: values may come before it.

Columns and labels:
[1] = Gamma irradiation of aqueous 1% taurolidine solution, radiolysis products; assay type: physicochemical; settings: approx. 25 gKy, aqueous 1% solution in 500 ml glass bottles; for content after γ-irradiation of a 1% taurolidine solution: IR, HPLC/MS, amino acid analysis
Method: Examination of an aqueous 1% taurolidine solution for radiolysis products. After γ-irradiation (approx. 25 gKy) of a 1% taurolidine solution contained in 500 ml glass bottles the following products can be isolated, or quantitatively determined by means of IR spectroscopy, HPLC/MS analysis, amino acid analysis: […]

[2] = tested on: C2C12 Muscle Myoblast Cells; settings: mouse
Method: (§2) In the present report, the acute toxicity of dehydrotaurultam was evaluated compared to taurultam. For this, two different categories of cells (muscle cells and fibroblasts) were incubated with three different concentrations of the two test substances for different periods of time. A possible toxic effect of the test substances on the cells was analyzed 20 hours later. The measures to determine possible cell damage were viability and level of cell adhesion.
(§3) The COS-7 and C2C12 cell lines were plated at 50% confluence on 48 well dishes, and incubated for 24 hours at 37°. Then the media were changed. To this, either unmodified medium (control), or medium containing 0.1%, 0.25% or 0.5% taurultam or dehydrotaurultam was used. The cell cultures were incubated at 37° for 5, 10, 20, 60 and 120 minutes, and then washed three times with fresh medium. After a further 20 hours in the incubator at 37°, the cells were evaluated.
(§4) As a measure of viability, the extent of cell adhesion was evaluated microscopically.
(§5) Cell adhesion was analyzed after 20 hours of incubation with taurultam and dehydrotaurultam respectively.
(§6) Muscle cells were incubated with taurultam or dehydrotaurultam (0.1%, 0.25%, 0.5%) for 5, 10, 20, 60 and 120 minutes at 37°. After rinsing them three times with a regular medium, the cultures were incubated for another 20 h. Then the extent of cells adhesion was examined microscopically.

COS-7 Fibroblasts [3] = tested on: COS-7 Fibroblasts
Method: (§7) For this, two different categories of cells (muscle cells and fibroblasts) were incubated with three different concentrations of the two test substances for different periods of time. A possible toxic effect of the test substances on the cells was analyzed 20 hours later. The measures to determine possible cell damage were viability and level of cell adhesion.
as §3, §4, §5
(§8) Fibroblasts were incubated with taurultam or dehydrotaurultam (0.1%, 0.25%, 0.5%) for 5, 10, 20, 60 and 120 minutes at 37°. After rinsing them three times with a regular medium, the cultures were incubated for another 20 h. Then the extent of adhesion of the cells was examined microscopically.

[4] = tested on: Murine melanoma B16 4A5 cells; test: Cell cycle by FACScan analysis; assay type: cell-based
Method: (§1) Murine melanoma B16 4A5 and B16 F10 cells were treated with taurolidine (0-200 μg/ml), X-ray (Roentgen) radiation (0-4 Gy), or their combination for different time points. Cell cycle was assessed by FACScan analysis. Cell apoptosis and necrosis were determined by FACScan analysis and MTT assay, and further confirmed by DNA gel electrophoresis.

[5] = tested on: Murine melanoma B16 F10 cells; test: Cell cycle by FACScan analysis; assay type: cell-based
Method: as §1

[6] = tested on: Murine melanoma B16 4A5 cells; test: Cell apoptosis and necrosis by FACScan analysis, MTT assay, DNA gel electrophoresis; assay type: cell-based
Method: as §1

[7] = tested on: Murine melanoma B16 F10 cells; test: as above; assay type: cell-based; settings: taurolidine 10-200 μg/ml
Method: as §1

B16 4A5 cells = test: Melanoma tumour growth in vivo, B16 4A5 cells injected into right flank; set-up: species or system C57BL/6 mice
Method: C57BL/6 mice (8-10 week old) (n=120) were injected with B16 4A5 cells (5×10^5 per mouse) into the right flank and divided into control, PVP (solvent for taurolidine), taurolidine (5 mg/mouse, i.p), radiation (5 Gy/mouse), and taurolidine plus radiation. Tumour growth rate, tumour/body weight ratio, lung metastases, and survival rate were recorded. Intra-tumour cell mitosis/apoptosis index, microvessel desity, and splenic cytotoxic T-lymphocyte (CTL) and nature killer (NK) cell-mediated cytotoxic activity were also accessed.

[8] = Evaluation of crystalline taurolidine powder after sterilisation by gamma-radiation; assay type: physicochemical
Method: Two batches of normal crystalline taurolidine powder were produced and sterilised by gamma-radiation. The taurolidine crystals 0.5 g were weighed into 5 ml vials under sterile conditions and laminar flow. The vials were closed by rubber stoppers and seal caps. The closed vials were then radiated with gamma rays of 25 kGy (Range certification 26-30 kGy) and subsequently analysed.

[9] = tested on: C2C12 Muscle Myoblast Cells; test: Acute toxicity: cell adhesion evaluated microscopically; settings: for Adhesion of C2C12 Muscle Myoblast Cells: then 20 h, % of control cultures
Method: as §2, §3, §4, §5, §6

COS-7 Fibroblasts [10] = test: as above; settings: for Adhesion of COS-7 Fibroblasts: then 20 h, % of control cultures
Method: as §7, §3, §4, §5, §8

[11] = taurolidine alone, 0-200 μg/ml, different time points
[12] = taurolidine in combination with X-ray radiation (0-4 Gy)
[13] = taurolidine 5 mg/mouse i.p. plus radiation 5 Gy/mouse
[14] = taurolidine 5 mg/mouse i.p. plus radiation 5 Gy/mouse vs taurolidine alone (p<0.01) or radiation alone (p<0.01)

amount after γ-irradiation of a 1% taurolidine solution [1]: 9.7 mg | content after γ-irradiation of a 1% taurolidine solution [1]: 0.0019%
SMILES: O=C=O [CO2]

amount after γ-irradiation of a 1% taurolidine solution [1]: 53 mg | content after γ-irradiation of a 1% taurolidine solution [1]: 0.0106%
SMILES: NCCS(=O)(=O)O [taurine]

amount after γ-irradiation of a 1% taurolidine solution [1]: 85.5 mg | content after γ-irradiation of a 1% taurolidine solution [1]: 0.0171%
SMILES: NCCS(N)(=O)=O [taurinamide]

More lines, now with the values behind:

SMILES: OCO [methylene glycol]
amount after γ-irradiation of a 1% taurolidine solution [1]: 81 mg | content after γ-irradiation of a 1% taurolidine solution [1]: 0.0160%

SMILES: O=S1(=O)CCN=CN1 [dehydrotaurultam]
amount after γ-irradiation of a 1% taurolidine solution [1]: 780 mg | content after γ-irradiation of a 1% taurolidine solution [1]: 0.156% | cell adhesion, muscle cells ([2]; 0.25 %): 80% | cell adhesion, muscle cells ([2]; 0.5 %): 80-90% | Adhesion of C2C12 Muscle Myoblast Cells ([2]; 5 min, 0.1 %): 100% | Adhesion of C2C12 Muscle Myoblast Cells ([2]; 5 min, 0.25 %): 100% | Adhesion of C2C12 Muscle Myoblast Cells ([2]; 5 min, 0.5 %): 100% | Adhesion of C2C12 Muscle Myoblast Cells ([2]; 10 min, 0.1 %): 100% | Adhesion of C2C12 Muscle Myoblast Cells ([2]; 10 min, 0.25 %): 100% | Adhesion of C2C12 Muscle Myoblast Cells ([2]; 10 min, 0.5 %): 100% | Adhesion of C2C12 Muscle Myoblast Cells ([2]; 20 min, 0.1 %): 100% | Adhesion of C2C12 Muscle Myoblast Cells ([2]; 20 min, 0.25 %): 90% | Adhesion of C2C12 Muscle Myoblast Cells ([2]; 20 min, 0.5 %): 90% | Adhesion of C2C12 Muscle Myoblast Cells ([2]; 60 min, 0.1 %): 100% | Adhesion of C2C12 Muscle Myoblast Cells ([2]; 60 min, 0.25 %): 80% | Adhesion of C2C12 Muscle Myoblast Cells ([2]; 60 min, 0.5 %): 90% | cell adhesion, muscle cells ([2]; 2 h): 80-90% | Adhesion of C2C12 Muscle Myoblast Cells ([2]; 120 min, 0.1 %): 90% | Adhesion of C2C12 Muscle Myoblast Cells ([2]; 120 min, 0.25 %): 80% | Adhesion of C2C12 Muscle Myoblast Cells ([2]; 120 min, 0.5 %): 80% | cell adhesion, fibroblasts (COS-7 Fibroblasts [3]): not detected | cell adhesion, fibroblasts (COS-7 Fibroblasts [3]; African green monkey, 0.25 %): 80% | Adhesion of COS-7 Fibroblasts (COS-7 Fibroblasts [3]; African green monkey, 5 min, 0.1 %): 100% | Adhesion of COS-7 Fibroblasts (COS-7 Fibroblasts [3]; African green monkey, 5 min, 0.25 %): 100% | Adhesion of COS-7 Fibroblasts (COS-7 Fibroblasts [3]; African green monkey, 5 min, 0.5 %): 100% | Adhesion of COS-7 Fibroblasts (COS-7 Fibroblasts [3]; African green monkey, 10 min, 0.1 %): 100% | Adhesion of COS-7 Fibroblasts (COS-7 Fibroblasts [3]; African green monkey, 10 min, 0.25 %): 100% | Adhesion of COS-7 Fibroblasts (COS-7 Fibroblasts [3]; African green monkey, 10 min, 0.5 %): 95% | Adhesion of COS-7 Fibroblasts (COS-7 Fibroblasts [3]; African green monkey, 20 min, 0.1 %): 100% | Adhesion of COS-7 Fibroblasts (COS-7 Fibroblasts [3]; African green monkey, 20 min, 0.25 %): 90% | Adhesion of COS-7 Fibroblasts (COS-7 Fibroblasts [3]; African green monkey, 20 min, 0.5 %): 90% | Adhesion of COS-7 Fibroblasts (COS-7 Fibroblasts [3]; African green monkey, 60 min, 0.1 %): 100% | Adhesion of COS-7 Fibroblasts (COS-7 Fibroblasts [3]; African green monkey, 60 min, 0.25 %): 90% | Adhesion of COS-7 Fibroblasts (COS-7 Fibroblasts [3]; African green monkey, 60 min, 0.5 %): 80% | Adhesion of COS-7 Fibroblasts (COS-7 Fibroblasts [3]; African green monkey, 120 min, 0.1 %): 90% | Adhesion of COS-7 Fibroblasts (COS-7 Fibroblasts [3]; African green monkey, 120 min, 0.25 %): 80% | Adhesion of COS-7 Fibroblasts (COS-7 Fibroblasts [3]; African green monkey, 120 min, 0.5 %): 80%

SMILES: O=S1(=O)CCN(CN2CCS(=O)(=O)NC2)CN1 [taurolidine]
cell cycle [4, 11]: cell cycle at G0/G1 phase with an enhanced sub-G1 population in a dose- and time-dependent manner | cell cycle [4, 12]: cell cycle arrest at G2/M phase with absence of sub-G1 population | cell cycle [5, 11]: cell cycle at G0/G1 phase with an enhanced sub-G1 population in a dose- and time-dependent manner | cell cycle [5, 12]: cell cycle arrest at G2/M phase with absence of sub-G1 population | apoptosis ([6]; 25 μg/ml taurolidine alone): failed to induce apoptosis | apoptosis ([6]; 25 μg/ml taurolidine in combination with 0.5 Gy radiation): 70% | cell apoptosis ([6]; taurolidine 10-200 μg/ml): dose- and time-dependent cell apoptosis | cell apoptosis [7]: dose- and time-dependent cell apoptosis | nature killer (NK) cell cytotoxic activity (B16 4A5 cells; [13]): enhanced | splenic cytotoxic T-lymphocyte (CTL) cytotoxic activity (B16 4A5 cells; [13]): enhanced | survival (B16 4A5 cells; [13]): improved survival | lung metastatic nodules (B16 4A5 cells; [14]): greater reduction | tumour growth rate (B16 4A5 cells; [14]): greater reduction | tumour/body weight ratio (B16 4A5 cells; [14]): greater reduction | primary and metastatic melanoma tumour growth (B16 4A5 cells; taurolidine 5 mg/mouse i.p. plus radiation 5 Gy/mouse, compared to untreated animals (p<0.001)): significantly attenuated | intra-tumour cell mitosis/apoptosis index (B16 4A5 cells; taurolidine plus radiation group): significant decreased | Solubility [8]: 1% | evaluation of stability after sterilization by gamma radiation [8]: identical with non-radiated crystals | Endotoxins ([8]; crystalline powder after gamma rays of 25 kGy): negative | amount after γ-irradiation of a 1% taurolidine solution [1]: 3,900 mg | content after γ-irradiation of a 1% taurolidine solution [1]: 0.78%

SMILES: O=S1(=O)CCNCN1 [taurultam]
Adhesion of C2C12 Muscle Myoblast Cells ([9]; 0.1%, incubation 5 min): 100% | Adhesion of C2C12 Muscle Myoblast Cells ([9]; 0.1%, incubation 5 min, listed as Taurultam): 100% | Adhesion of C2C12 Muscle Myoblast Cells ([9]; 0.1%, incubation 10 min): 100% | Adhesion of C2C12 Muscle Myoblast Cells ([9]; 0.1%, incubation 10 min, listed as Taurultam): 100% | Adhesion of C2C12 Muscle Myoblast Cells ([9]; 0.1%, incubation 20 min): 100% | Adhesion of C2C12 Muscle Myoblast Cells ([9]; 0.1%, incubation 20 min, listed as Taurultam): 100% | Adhesion of C2C12 Muscle Myoblast Cells ([9]; 0.1%, incubation 60 min): 90% | Adhesion of C2C12 Muscle Myoblast Cells ([9]; 0.1%, incubation 120 min): 60% | Adhesion of C2C12 Muscle Myoblast Cells ([9]; 0.1%, incubation 120 min, listed as Taurultam): 60% | Adhesion of C2C12 Muscle Myoblast Cells ([9]; 0.25%, incubation 5 min): 100% | Adhesion of C2C12 Muscle Myoblast Cells ([9]; 0.25%, incubation 10 min): 95% | Adhesion of C2C12 Muscle Myoblast Cells ([9]; 0.25%, incubation 20 min): 90% | Adhesion of C2C12 Muscle Myoblast Cells ([9]; 0.25%, incubation 60 min): 70% | Adhesion of C2C12 Muscle Myoblast Cells ([9]; 0.25%, incubation 120 min): 60% | cell adhesion, muscle cells ([9]; 0.25%, incubation periods of 60 and 120 minutes): 60-70% | Adhesion of C2C12 Muscle Myoblast Cells ([9]; 0.5%, incubation 5 min): 95% | Adhesion of C2C12 Muscle Myoblast Cells ([9]; 0.5%, incubation 10 min): 90% | Adhesion of C2C12 Muscle Myoblast Cells ([9]; 0.5%, incubation 20 min): 90% | Adhesion of C2C12 Muscle Myoblast Cells ([9]; 0.5%, incubation 60 min): 60% | Adhesion of C2C12 Muscle Myoblast Cells ([9]; 0.5%, incubation 120 min): 50% | cell adhesion, muscle cells ([9]; 0.5%, incubation periods of 60-120 minutes): 50-60% | cell adhesion, muscle cells ([9]; all concentrations (0.1-0.5%), 2-hour incubation period): 50-60% | Adhesion of COS-7 Fibroblasts (COS-7 Fibroblasts [10]; 0.1%, incubation 5 min): 100% | Adhesion of COS-7 Fibroblasts (COS-7 Fibroblasts [10]; 0.1%, incubation 10 min): 100% | Adhesion of COS-7 Fibroblasts (COS-7 Fibroblasts [10]; 0.1%, incubation 20 min): 90% | Adhesion of COS-7 Fibroblasts (COS-7 Fibroblasts [10]; 0.1%, incubation 60 min): 80% | Adhesion of COS-7 Fibroblasts (COS-7 Fibroblasts [10]; 0.1%, incubation 120 min): 70% | cell adhesion, fibroblasts (COS-7 Fibroblasts [10]; 0.1%, more extended incubation periods (60 and 120 minutes)): limited adhesion was observed | Adhesion of COS-7 Fibroblasts (COS-7 Fibroblasts [10]; 0.25%, incubation 5 min): 95% | Adhesion of COS-7 Fibroblasts (COS-7 Fibroblasts [10]; 0.25%, incubation 10 min): 90% | Adhesion of COS-7 Fibroblasts (COS-7 Fibroblasts [10]; 0.25%, incubation 20 min): 60% | Adhesion of COS-7 Fibroblasts (COS-7 Fibroblasts [10]; 0.25%, incubation 60 min): 60% | Adhesion of COS-7 Fibroblasts (COS-7 Fibroblasts [10]; 0.25%, incubation 120 min): 70% | cell adhesion, fibroblasts (COS-7 Fibroblasts [10]; 0.25%, incubation period of at least 20 minutes): 60% | Adhesion of COS-7 Fibroblasts (COS-7 Fibroblasts [10]; 0.5%, incubation 5 min): 95% | Adhesion of COS-7 Fibroblasts (COS-7 Fibroblasts [10]; 0.5%, incubation 10 min): 90% | Adhesion of COS-7 Fibroblasts (COS-7 Fibroblasts [10]; 0.5%, incubation 20 min): 70% | Adhesion of COS-7 Fibroblasts (COS-7 Fibroblasts [10]; 0.5%, incubation 60 min): 60% | Adhesion of COS-7 Fibroblasts (COS-7 Fibroblasts [10]; 0.5%, incubation 120 min): 40% | cell adhesion, fibroblasts (COS-7 Fibroblasts [10]; 0.5%, more extended incubation periods (beyond 10 minutes)): ≥ 40% | cell adhesion, fibroblasts (COS-7 Fibroblasts [10]; most extreme conditions (0.5%, 1-2 h)): 40-60%
